The values below come from patent US6774220B1, “Compounds having lectinic properties and their biological applications” (Association pour le Développement de la Biothérapie …, priority 1995, dated 2004).

For assay [1], the system named is TG-180 tumour cells. The experiment in a line: Antitumour action on grafted TG-180 ascitic tumour. The settings on record: for anti-tumour effect (in words): TG-180 graft in mice.
Protocol: In order to test the antitumour capacity of SCL inhibiting sugars, TG-180 tumour cells originating from a tumour resistant to chemical metabolic inhibitors was grafted. In a concentration of 3×10^6 cells injected i.p. into 20 gr Swiss mice, an ascitic tumour is obtained which is detectable in 10 days and kills practically 100% of the animals in 21-25 days.
In parallel series, the various groups of animals were treated 3 days after inoculation, either with a specific sugar (glucosamine, lactose, galacturonate, N.A.N.A., neuramine-lactose) in a 5 to 10% solution, the sugar concentration being 100 mM, or with the same treatment in association with an injection of immuno-stimulant (extract of corynebacterium parvum, Merieux, France), in a dose of 200 g/mouse, or interferon, or both.
4 groups of mice per experiment were used.
They are assessed by the percentage of tumours that appeared on the 10th day, the mean survival time of the animals (MST) in. days, and the final survival (as a percentage).
Assay [2] concerns encephalomyocarditis virus (EMC). Kind of assay: Protection of IFN against the encephalomyocarditis virus in Swiss mice, with SCL inhibiting sugars. The assay is classed as in vivo. The settings on record: EMC virus i.p. The protocol:
The model used is the encephalomyocarditis virus (EMC) which kills mice in practically all cases after rather varying but relatively short incubation periods.
Male mice (average weight: […], aged 8 to 10 weeks) were injected i.p. with sodium galacturonate, glucosamine and N-acetylneuraminic acid (5 to 10% solutions containing 100 mM sugar). 24 hours afterwards, one hundred lethal doses (50%) of EMC virus are injected by the same route. After one hour, murine interferon is injected (in a dose of 20,000 units in 0.5 ml). Table 3 gives the number of animals surviving out of the total tested, the percentage and statistical significance.

The test system of assay [3] is T (lympho) cells. Kind of assay: Stimulation over 24 hours of the synthesis of DNA in T (lympho) cells. The assay is classed as cell-based. The protocol: XI Stimulation over 24 hours of the synthesis of DNA in T (lympho) cells
[4] abbreviates: single agent (+MEM, or IFN in reference group).
[5] abbreviates: IL2 (100 u) +SCL + inhibitor (NANA 0.75 mmol.; oligo 41-55 3 μγ/ml).

For the molecule `NCCCC(=O)O` [GABA, gamma aminobutyric acid], in assay [1] (+CP), the “Final survival (%)” value was “(53) %”; the “Final survival, Number” value is recorded as 24; the “MST (mean survival time)” value came to 68 ± 11 days; the “Tumours on 10th day (%)” value amounted to 55%. In assay [1] (+CP), the “Tumours on 10th day, number” value stood at 25. Besides, in assay [1] (+CP +IFN), the “Final survival (%)” value was “(56) %”; the “Final survival, Number” value is listed as 17; the “MST (mean survival time)” value stood at 70 ± 13 days; the “Tumours on 10th day (%)” value was found to be 23%. The “Tumours on 10th day, number” value in assay [1] (+CP +IFN) is given as 7. In addition, in assay [1] (+IFN), the “Final survival (%)” value is given as “(24) %”; the “Final survival, Number” value was found to be 11; the “MST (mean survival time)” value came to 43 ± 10 days; the “Tumours on 10th day (%)” value is reported as 42%. Also, the “Tumours on 10th day, number” value in assay [1] (+IFN) was 19. Also, the “anti-tumour effect (in words)” value in assay [1] is recorded as “inhibit oncogenesis significantly”. In assay [1] (agent alone), the “Final survival (%)” value was “(13) %”; the “Final survival, Number” value is recorded as 4; the “MST (mean survival time)” value was found to be 35 ± 9 days; the “Tumours on 10th day (%)” value turned out to be 46%. The “Tumours on 10th day, number” value in assay [1] (agent alone) is recorded as 14.
As to `N[C@H]1C(O)O[C@H](CO)[C@@H](O)[C@@H]1O` (stereo partly drawn) [Glucosamine, glucosamine], the “number of animals surviving out of the total number tested” value (“number … of the total number tested” for short) in assay [2] (setting [4]) is listed as 1/30; in assay [2] (sugar +IFN (20,000 units)), 14/45b. Also, the percentage surviving in assay [2] (setting [4]) worked out at 3%; in assay [2] (sugar +IFN (20,000 units)) it was 31%. The “Final survival (%)” value is “(53) %” in assay [1] (+CP); “(58) %” in assay [1] (+CP +IFN); 53% in assay [1] (+CP, listed as glucosamine); “(17) %” in assay [1] (+IFN); “(6) %” in assay [1] (agent alone). Besides, the “Final survival, Number” value in assay [1] (+CP) was found to be 40; in assay [1] (+CP +IFN), 35; in assay [1] (+IFN) it was 8; in assay [1] (agent alone), 1. Further, the “MST (mean survival time)” value worked out at 67 ± 8 days in assay [1] (+CP), 70 ± 9 days in assay [1] (+CP +IFN), 39 ± 9 days in assay [1] (+IFN) and 28 ± 6 days in assay [1] (agent alone). In addition, the “Tumours on 10th day (%)” value in assay [1] (+CP) amounted to 34%; in assay [1] (+CP +IFN), 28%; in assay [1] (+IFN), 13%; in assay [1] (agent alone) it was 20%. In addition, the “Tumours on 10th day, number” value in assay [1] (+CP) came to 26; in assay [1] (+CP +IFN) it was 17; in assay [1] (+IFN) it was 6; in assay [1] (agent alone), 3.
On to `OC[C@H]1O[C@@H](O[C@H]2[C@H](O)[C@@H](O)C(O)O[C@@H]2CO)[C@H](O)[C@@H](O)[C@H]1O` (stereo partly drawn) [Lactose, lactose], for which, in assay [1] (+CP), the “Final survival (%)” value is “(46) %”; the “Final survival, Number” value was 14; the “MST (mean survival time)” value turned out to be 82 ± 13 days; the “Tumours on 10th day (%)” value came out at 10%. In addition, the “Tumours on 10th day, number” value in assay [1] (+CP) turned out to be 3. Besides, in assay [1] (+CP +IFN), the “Final survival (%)” value is “(64) %”; the “Final survival, Number” value was found to be 29; the “MST (mean survival time)” value is on record as 75 ± 10 days; the “Tumours on 10th day (%)” value was found to be 13%. For the same molecule, the “Tumours on 10th day, number” value in assay [1] (+CP +IFN) came to 6. The “Final survival (%)” value in assay [1] (+CP, listed as lactose) was 43%. Further, in assay [1] (+IFN), the “Final survival (%)” value is listed as “(13) %”; the “Final survival, Number” value is 6; the “MST (mean survival time)” value is on record as 64 ± 9 days; the “Tumours on 10th day (%)” value is listed as 20%. Also, in assay [1] (+IFN), the “Tumours on 10th day, number” value was found to be 9. In assay [1] (agent alone), the “Final survival (%)” value was “(3) %”; the “Final survival, Number” value was found to be 1; the “MST (mean survival time)” value was 26 ± 6 days; the “Tumours on 10th day (%)” value is on record as 36%. In addition, the “Tumours on 10th day, number” value in assay [1] (agent alone) is given as 11.
For `CC(=O)N[C@H]1C(O)O[C@H](CO)[C@@H](O)[C@@H]1O` (stereo partly drawn) [N-acetylglucosamine], in assay [1], the “anti-tumour effect (in words)” value is “comparable anti-tumour effects”.
For `O=C[C@H](O)[C@@H](O)[C@@H](O)[C@H](O)C(=O)[O-].[Na+]` [Na galacturonate, sodium galacturonate], in assay [2] (setting [4]), the “number … of the total number tested” value is reported as 6/75 and the percentage surviving is 8%. In addition, in assay [2] (sugar +IFN (20,000 units)), the “number … of the total number tested” value is recorded as 22/90a and the percentage surviving stood at 24%. For the same molecule, in assay [1] (+CP), the “Final survival (%)” value was “(20) %”; the “Final survival, Number” value is reported as 3; the “MST (mean survival time)” value was determined as 42 ± 16 days; the “Tumours on 10th day (%)” value is listed as 13%. Also, the “Tumours on 10th day, number” value in assay [1] (+CP) turned out to be 2. For the same molecule, in assay [1] (+CP +IFN), the “Final survival (%)” value is recorded as “(73) %”; the “Final survival, Number” value is 11; the “MST (mean survival time)” value is 81 ± 17 days; the “Tumours on 10th day (%)” value amounted to 6%. Also, the “Tumours on 10th day, number” value in assay [1] (+CP +IFN) was 1. Moreover, in assay [1] (+IFN), the “Final survival (%)” value was “(13) %”; the “Final survival, Number” value amounted to 2; the “MST (mean survival time)” value came out at 34 ± 15 days; the “Tumours on 10th day (%)” value was found to be 40%. In assay [1] (+IFN), the “Tumours on 10th day, number” value is reported as 6. In assay [1] (agent alone), the “Final survival (%)” value is reported as “(6) %”; the “Final survival, Number” value stood at 1; the “MST (mean survival time)” value is given as 31 ± 10 days; the “Tumours on 10th day (%)” value worked out at 20%. Also, in assay [1] (agent alone), the “Tumours on 10th day, number” value is 3.
For `O=C([O-])C1OC(O)C(O)C(O)C1O.[Na+]` (stereo not drawn) [Na glucuronate, reference compound], in assay [2] (setting [4]), the “number … of the total number tested” value is on record as 6/45 and the percentage surviving was 13%. Moreover, in assay [2] (sugar +IFN (20,000 units)), the “number … of the total number tested” value is on record as 5/45 and the percentage surviving stood at 11%. The “anti-tumour effect (in words)” value in assay [1] is “comparable anti-tumour effects”.
On to `CCC(N)C(=O)O` (stereo not drawn) [alphaaminobut., alpha aminobutyric acid], for which, in assay [1] (+CP), the “Final survival (%)” value is given as “(23) %”; the “Final survival, Number” value came to 7; the “MST (mean survival time)” value amounted to 55 ± 14 days; the “Tumours on 10th day (%)” value is listed as 60%. The “Tumours on 10th day, number” value in assay [1] (+CP) is given as 18. Further, in assay [1] (+CP +IFN), the “Final survival (%)” value is “(47) %”; the “Final survival, Number” value was 14; the “MST (mean survival time)” value was 62 ± 14 days; the “Tumours on 10th day (%)” value is 23%. The “Tumours on 10th day, number” value in assay [1] (+CP +IFN) came out at 7. In assay [1] (+IFN), the “Final survival (%)” value is listed as “(0) %”; the “Final survival, Number” value came to 0; the “MST (mean survival time)” value is recorded as 25 ± 2 days; the “Tumours on 10th day (%)” value is given as 30%. In assay [1] (+IFN), the “Tumours on 10th day, number” value is on record as 9. Also, in assay [1] (agent alone), the “Final survival (%)” value was “(0) %”; the “Final survival, Number” value is reported as 0; the “MST (mean survival time)” value was 26 ± 1 days; the “Tumours on 10th day (%)” value was 63%. In addition, the “Tumours on 10th day, number” value in assay [1] (agent alone) amounted to 19.
As to `CC(C)(N)C(=O)O` [alphaaminoiso., alpha aminoisobutyric acid], in assay [1] (+CP), the “Final survival (%)” value is given as “(43) %”; the “Final survival, Number” value is 13; the “MST (mean survival time)” value is recorded as 66 ± 13 days; the “Tumours on 10th day (%)” value is recorded as 46%. Further, the “Tumours on 10th day, number” value in assay [1] (+CP) was determined as 14. For the same molecule, in assay [1] (+CP +IFN), the “Final survival (%)” value is “(47) %”; the “Final survival, Number” value was determined as 14; the “MST (mean survival time)” value worked out at 64 ± 13 days; the “Tumours on 10th day (%)” value is listed as 4d %. Moreover, the “Tumours on 10th day, number” value in assay [1] (+CP +IFN) is recorded as 12. For the same molecule, in assay [1] (+IFN), the “Final survival (%)” value is on record as “(13) %”; the “Final survival, Number” value stood at 4; the “MST (mean survival time)” value was 31 ± 10 days; the “Tumours on 10th day (%)” value is reported as 50%. Also, in assay [1] (+IFN), the “Tumours on 10th day, number” value is recorded as 15. Moreover, the “anti-tumour effect (in words)” value in assay [1] is “inhibit oncogenesis significantly”. In assay [1] (agent alone), the “Final survival (%)” value is “(7) %”; the “Final survival, Number” value is given as 2; the “MST (mean survival time)” value came to 31 ± 7 days; the “Tumours on 10th day (%)” value was determined as 20%. The “Tumours on 10th day, number” value in assay [1] (agent alone) was found to be 6.
With “oligo 41-55: peptide SEQ ID NO: 5, position 41 to 55 in SEQ ID NO: 1 (GLGASRPRVAVRSAY; listed as Homo sapiens)”, the “effect on the stimulation of DNA synthesis by SCL (in words)” value in assay [3] (24 hours) is given as “inhibited”. In assay [3] (setting [5]), the “synthesis of DNA, EXP. N° 1” value is reported as 4,674 ± 832.52 and the “synthesis of DNA, EXP. N° 2” value is 23,184 ± 2494.

B1: SCL: SCL excreted in the H-1 medium by PBMC over 24 hours maintained without serum (protein)
chain: SIHFSSPVFTSRSAAFSGRGAQVRLSSARPGGLGSSSLYGLGASRPRVAVRSAYGGPVGAGIREVTINQSLLAPLRLGADPFSQRVRQEESEQIKTLNNKFASFIDKVRFLEQQNKLLETKWTLLQEQKSAKSSRLPDIFEAQIAGLRGQLEAMQVDGGRLEQGLRTMQDVVEDFKNKYEDEINRRTAAENEFVVLKKDVDAAYMSKVELEAKVDALNDEINFLRTLNETELTELQSQISDTSVVLSMDNSRSLDLDGIIAEVKAQYEEMAKCSRAEAEAWYQTKFETLQAQAGKHGDDLRNTRNEISEMNRAIQRLQAEIDNIKNQRAKLEAAIAEAEERGELALKDARAKQEELEAALQRAKQDMARQLREYQELMSVKLALDIEIATYRKLLEGEESRLAGDGVGAANISVMNSTGGSSSGGGIGLTLGGTMGSNALSFSSSAGPGLLKAYSIRTASASRRSTRD
B1: in assay [3] (24 hours), the “effect on synthesis of DNA (in words)” value is “stimulates the synthesis of DNA”. In assay [3] (IL2 (100 u) +SCL, 24 hours), the “synthesis of DNA, EXP. N° 1” value is reported as 6,167 ± 483.66 and the “synthesis of DNA, EXP. N° 2” value is 35,438 ± 10.370.
